From ChEMBL document CHEMBL1153992, “2-Azidoalkoxy-7-hydro-8-oxoadenine derivatives as TLR7 agonists inducing dendritic cell maturation” (Bioorg Med Chem Lett, 2009)
Activity calls are given as the source filed them. The calls are words filed in the database; no cut-off is given here.

Molecular target: T1, Toll-like receptor 7 (Mus musculus) (UniProt P58681)
T1 sequence (whole entry): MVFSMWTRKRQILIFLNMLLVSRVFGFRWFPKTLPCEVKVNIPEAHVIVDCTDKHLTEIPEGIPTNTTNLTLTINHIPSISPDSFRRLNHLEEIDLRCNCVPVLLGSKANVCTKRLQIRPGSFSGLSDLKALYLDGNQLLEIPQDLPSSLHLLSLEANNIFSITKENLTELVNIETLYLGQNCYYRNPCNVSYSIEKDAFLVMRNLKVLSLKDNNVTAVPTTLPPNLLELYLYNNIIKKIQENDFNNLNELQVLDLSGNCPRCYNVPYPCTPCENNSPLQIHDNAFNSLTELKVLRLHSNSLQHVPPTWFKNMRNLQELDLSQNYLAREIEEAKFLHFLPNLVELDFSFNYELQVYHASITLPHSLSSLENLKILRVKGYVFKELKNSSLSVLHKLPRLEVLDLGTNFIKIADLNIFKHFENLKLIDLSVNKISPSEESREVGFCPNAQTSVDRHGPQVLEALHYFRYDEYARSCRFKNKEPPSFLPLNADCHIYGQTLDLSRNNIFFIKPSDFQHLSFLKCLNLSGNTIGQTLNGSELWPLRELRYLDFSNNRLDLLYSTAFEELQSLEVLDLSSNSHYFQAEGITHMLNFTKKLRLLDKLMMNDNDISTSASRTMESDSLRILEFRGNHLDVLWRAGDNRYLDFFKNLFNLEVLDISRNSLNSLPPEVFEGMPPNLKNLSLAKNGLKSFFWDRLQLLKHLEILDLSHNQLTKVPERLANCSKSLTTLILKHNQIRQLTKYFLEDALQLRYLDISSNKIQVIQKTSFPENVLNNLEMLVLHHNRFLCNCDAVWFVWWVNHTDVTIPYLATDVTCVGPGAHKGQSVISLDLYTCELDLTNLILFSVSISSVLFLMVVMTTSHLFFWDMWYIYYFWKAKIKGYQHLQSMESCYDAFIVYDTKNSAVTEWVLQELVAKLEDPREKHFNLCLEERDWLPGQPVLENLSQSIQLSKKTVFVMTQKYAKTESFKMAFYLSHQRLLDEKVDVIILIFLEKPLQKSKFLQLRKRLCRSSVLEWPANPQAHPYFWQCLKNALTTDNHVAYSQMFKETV
Assay: Induction of TLR7 receptor-mediated C57BL/6 mouse BMD cells activation assessed as upregulation of MHC class-2 at 1 uM after 48 hrs by flow cytometry
Format: cell-based

Compound | Activity
CCOCc1nc2c(N)nc3ccccc3c2n1CC(C)(C)O | Active
[N-]=[N+]=NCCOCCOCCOc1nc(N)c2[nH]c(=O)n(Cc3ccccc3)c2n1 | inactive
[N-]=[N+]=NCCOCCOc1nc(N)c2[nH]c(=O)n(Cc3ccccc3)c2n1 | Active
COCCOc1nc(N)c2[nH]c(=O)n(Cc3ccccc3)c2n1 | Active
CCCCOc1nc(N)c2[nH]c(=O)n(Cc3ccccc3)c2n1 | Active

The remaining lines, values ahead:

Activity | Compound
Active | [N-]=[N+]=NCCCCCCOc1nc(N)c2[nH]c(=O)n(Cc3ccccc3)c2n1
Active | [N-]=[N+]=NCCOc1nc(N)c2[nH]c(=O)n(Cc3ccccc3)c2n1
Active | [N-]=[N+]=NCCCCCOc1nc(N)c2[nH]c(=O)n(Cc3ccccc3)c2n1
Active | [N-]=[N+]=NCCCOc1nc(N)c2[nH]c(=O)n(Cc3ccccc3)c2n1
Active | [N-]=[N+]=NCCCCOc1nc(N)c2[nH]c(=O)n(Cc3ccccc3)c2n1

Molecular target: T1, Toll-like receptor 7 (Mus musculus)
Assay: Induction of TLR7 receptor-mediated C57BL/6 mouse BMD cells activation assessed as upregulation of CD40 at 1 uM after 48 hrs by flow cytometry
Format: cell-based

Compound | Activity
CCOCc1nc2c(N)nc3ccccc3c2n1CC(C)(C)O | Active
[N-]=[N+]=NCCOCCOCCOc1nc(N)c2[nH]c(=O)n(Cc3ccccc3)c2n1 | inactive
[N-]=[N+]=NCCOCCOc1nc(N)c2[nH]c(=O)n(Cc3ccccc3)c2n1 | Active
COCCOc1nc(N)c2[nH]c(=O)n(Cc3ccccc3)c2n1 | Active
CCCCOc1nc(N)c2[nH]c(=O)n(Cc3ccccc3)c2n1 | Active

Continued, values first:

Activity | Compound
Active | [N-]=[N+]=NCCCCCCOc1nc(N)c2[nH]c(=O)n(Cc3ccccc3)c2n1
Active | [N-]=[N+]=NCCOc1nc(N)c2[nH]c(=O)n(Cc3ccccc3)c2n1
Active | [N-]=[N+]=NCCCCCOc1nc(N)c2[nH]c(=O)n(Cc3ccccc3)c2n1
Active | [N-]=[N+]=NCCCOc1nc(N)c2[nH]c(=O)n(Cc3ccccc3)c2n1
Active | [N-]=[N+]=NCCCCOc1nc(N)c2[nH]c(=O)n(Cc3ccccc3)c2n1

Molecular target: T1, Toll-like receptor 7 (Mus musculus)
Assay: Induction of TLR7 receptor-mediated C57BL/6 mouse BMD cells activation assessed as IL12 production at 10 nM after 24 hrs by ELISA
Format: cell-based

Compound | Activity
CCCCOc1nc(N)c2[nH]c(=O)n(Cc3ccccc3)c2n1 | Active

Molecular target: T1, Toll-like receptor 7 (Mus musculus)
Assay: Induction of TLR7 receptor-mediated C57BL/6 mouse BMD cells activation assessed as upregulation of CD86 at 1 uM after 48 hrs by flow cytometry
Format: cell-based

Compound | Activity
CCOCc1nc2c(N)nc3ccccc3c2n1CC(C)(C)O | Active
[N-]=[N+]=NCCOCCOCCOc1nc(N)c2[nH]c(=O)n(Cc3ccccc3)c2n1 | inactive
[N-]=[N+]=NCCOCCOc1nc(N)c2[nH]c(=O)n(Cc3ccccc3)c2n1 | Active
COCCOc1nc(N)c2[nH]c(=O)n(Cc3ccccc3)c2n1 | Active
CCCCOc1nc(N)c2[nH]c(=O)n(Cc3ccccc3)c2n1 | Active

The remaining lines, values ahead:

Activity | Compound
Active | [N-]=[N+]=NCCCCCCOc1nc(N)c2[nH]c(=O)n(Cc3ccccc3)c2n1
Active | [N-]=[N+]=NCCOc1nc(N)c2[nH]c(=O)n(Cc3ccccc3)c2n1
Active | [N-]=[N+]=NCCCCCOc1nc(N)c2[nH]c(=O)n(Cc3ccccc3)c2n1
Active | [N-]=[N+]=NCCCOc1nc(N)c2[nH]c(=O)n(Cc3ccccc3)c2n1
Active | [N-]=[N+]=NCCCCOc1nc(N)c2[nH]c(=O)n(Cc3ccccc3)c2n1

Molecular target: T1, Toll-like receptor 7 (Mus musculus)
Assay: Induction of TLR7 receptor-mediated C57BL/6 mouse BMD cells activation assessed as IL12 production at 5 uM after 24 hrs by ELISA
Format: cell-based

Compound | Activity
CCOCc1nc2c(N)nc3ccccc3c2n1CC(C)(C)O | Active
[N-]=[N+]=NCCOCCOc1nc(N)c2[nH]c(=O)n(Cc3ccccc3)c2n1 | Active
COCCOc1nc(N)c2[nH]c(=O)n(Cc3ccccc3)c2n1 | Active
CCCCOc1nc(N)c2[nH]c(=O)n(Cc3ccccc3)c2n1 | Active

The remaining lines, values ahead:

Activity | Compound
Active | [N-]=[N+]=NCCCCCCOc1nc(N)c2[nH]c(=O)n(Cc3ccccc3)c2n1
Active | [N-]=[N+]=NCCOc1nc(N)c2[nH]c(=O)n(Cc3ccccc3)c2n1
Active | [N-]=[N+]=NCCCCCOc1nc(N)c2[nH]c(=O)n(Cc3ccccc3)c2n1
Active | [N-]=[N+]=NCCCOc1nc(N)c2[nH]c(=O)n(Cc3ccccc3)c2n1
Active | [N-]=[N+]=NCCCCOc1nc(N)c2[nH]c(=O)n(Cc3ccccc3)c2n1

Molecular target: T1, Toll-like receptor 7 (Mus musculus)
Assay: Induction of TLR7 receptor-mediated C57BL/6 mouse BMD cells activation assessed as IL12 production at 0.1 uM after 24 hrs by ELISA
Format: cell-based

Compound | Activity
[N-]=[N+]=NCCOc1nc(N)c2[nH]c(=O)n(Cc3ccccc3)c2n1 | Active
[N-]=[N+]=NCCCOc1nc(N)c2[nH]c(=O)n(Cc3ccccc3)c2n1 | Active
